Reference: ChEMBL document CHEMBL1134078, “Structure-based design, synthesis and SAR of a novel series of thiopheneamidine urokinase plasminogen activator inhibitors” (Bioorg Med Chem Lett, 2001)

Columns and labels:
[1] = molecular target: Urokinase-type plasminogen activator (Homo sapiens, UniProt P00749)
[2] = molecular target: Serine protease 1 (Homo sapiens, UniProt P07477); assay: Inhibitory activity against Trypsin
[3] = molecular target: Tissue-type plasminogen activator (Homo sapiens, UniProt P00750); assay: Inhibitory activity against tissue plasminogen activator
[4] = molecular target: Plasminogen (Homo sapiens, UniProt P00747); assay: Inhibitory activity against plasmin
[5] = molecular target: Prothrombin (Homo sapiens, UniProt P00734); assay: Inhibitory activity against Thrombin (no observable inhibition at this screening concentration)

Chain of Tissue-type plasminogen activator (P00750 whole entry): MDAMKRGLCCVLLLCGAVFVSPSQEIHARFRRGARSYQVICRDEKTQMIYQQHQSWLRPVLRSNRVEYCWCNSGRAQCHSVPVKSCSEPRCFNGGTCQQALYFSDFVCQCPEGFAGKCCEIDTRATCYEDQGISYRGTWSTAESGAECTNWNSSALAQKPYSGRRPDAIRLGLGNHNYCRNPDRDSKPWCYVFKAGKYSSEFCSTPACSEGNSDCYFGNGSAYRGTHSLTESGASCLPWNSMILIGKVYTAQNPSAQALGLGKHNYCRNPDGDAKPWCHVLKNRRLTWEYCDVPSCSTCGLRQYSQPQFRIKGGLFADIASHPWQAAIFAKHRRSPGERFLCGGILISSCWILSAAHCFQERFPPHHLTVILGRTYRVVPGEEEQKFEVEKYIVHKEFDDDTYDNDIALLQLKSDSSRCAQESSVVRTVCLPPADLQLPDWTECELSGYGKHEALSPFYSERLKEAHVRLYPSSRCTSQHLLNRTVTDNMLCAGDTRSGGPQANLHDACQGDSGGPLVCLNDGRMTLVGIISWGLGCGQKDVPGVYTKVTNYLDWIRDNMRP
Chain of Serine protease 1 (P07477 whole entry): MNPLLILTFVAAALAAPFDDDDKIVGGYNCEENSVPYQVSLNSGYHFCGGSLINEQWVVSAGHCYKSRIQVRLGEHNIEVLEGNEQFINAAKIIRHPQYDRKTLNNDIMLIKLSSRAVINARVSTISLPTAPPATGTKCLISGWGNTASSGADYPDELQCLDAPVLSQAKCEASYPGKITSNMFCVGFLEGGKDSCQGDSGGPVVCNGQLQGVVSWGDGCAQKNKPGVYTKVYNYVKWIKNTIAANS
Chain of Plasminogen (P00747 97-580 limits assumed): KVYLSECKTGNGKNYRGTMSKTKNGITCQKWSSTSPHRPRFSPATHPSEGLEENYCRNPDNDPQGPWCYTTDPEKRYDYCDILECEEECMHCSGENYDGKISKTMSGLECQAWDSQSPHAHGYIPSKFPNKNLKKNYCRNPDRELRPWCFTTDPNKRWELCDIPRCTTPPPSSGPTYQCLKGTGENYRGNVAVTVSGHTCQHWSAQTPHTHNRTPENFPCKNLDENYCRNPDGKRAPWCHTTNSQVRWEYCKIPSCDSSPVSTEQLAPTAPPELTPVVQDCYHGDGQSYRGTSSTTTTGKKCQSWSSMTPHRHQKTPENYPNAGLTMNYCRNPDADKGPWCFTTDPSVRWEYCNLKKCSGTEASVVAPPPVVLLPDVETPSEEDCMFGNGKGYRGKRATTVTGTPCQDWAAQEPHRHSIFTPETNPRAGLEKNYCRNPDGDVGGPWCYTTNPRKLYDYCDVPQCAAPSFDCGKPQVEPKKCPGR
Chain of Plasminogen (P00747 581-810 limits assumed): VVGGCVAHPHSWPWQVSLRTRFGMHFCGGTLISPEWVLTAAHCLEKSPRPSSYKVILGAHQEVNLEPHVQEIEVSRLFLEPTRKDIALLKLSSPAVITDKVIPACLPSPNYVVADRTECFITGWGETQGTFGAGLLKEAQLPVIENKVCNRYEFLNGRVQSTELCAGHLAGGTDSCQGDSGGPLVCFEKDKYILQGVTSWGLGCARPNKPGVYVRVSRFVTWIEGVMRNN

## CSc1sc(C(=N)N)cc1-c1nc(-c2ccccc2)c(-c2ccccc2)s1
[1]
  Ki: 982 µM

## CSc1sc(C(=N)N)cc1-c1nc(-c2ccc3c(c2)CCCC3)cs1
[1]
  Ki: 145 µM

## CSc1sc(C(=N)N)cc1-c1cccc(-c2ccccc2)c1
[1]
  Ki: > 34 µM

## CSc1sc(C(=N)N)cc1-c1nc(-c2ccc3c(c2)OCCCO3)cs1
[1]
  Ki: 100 µM

## CSc1sc(C(=N)N)cc1-c1cccc(-c2ccccc2)n1
[1]
  Ki: > 28 µM

## COc1ccccc1-c1csc(-c2cc(C(=N)N)sc2SC)n1
[1]
  Ki: 130 µM

## CSc1sc(C(=N)N)cc1-c1ccccc1
[1]
  Ki: 0.6 µM

## CSc1sc(C(=N)N)cc1-c1nc(C2CCCCC2)cs1
[1]
  Ki: 641 µM

## CSc1sc(C(=N)N)cc1-c1nc(-c2ccc(Cl)cc2Cl)cs1
[1]
  Ki: 287 µM

## CSc1sc(C(=N)N)cc1-c1nc(-c2ccc3c(c2)OCCO3)cs1
[1]
  Ki: 108 µM

## CSc1sc(C(=N)N)cc1-c1nc(C)cs1
[1]
  Ki: 815 µM

## CSc1sc(C(=N)N)cc1-c1nc(-c2cccc(Br)c2)cs1
[1]
  Ki: 442 µM

## CSc1sc(C(=N)N)cc1-c1nc(-c2cccnc2Cl)cs1
[1]
  Ki: 154 µM

## COc1ccc(-c2csc(-c3cc(C(=N)N)sc3SC)n2)cc1
[1]
  Ki: 327 µM

## CSc1sc(C(=N)N)cc1-c1nc(-c2ccc(Cl)cc2)cs1
[1]
  Ki: 99 µM

## COc1ccc(-c2csc(-c3cc(C(=N)N)sc3SC)n2)c(OC)c1
[1]
  Ki: 152 µM

## CSc1sc(C(=N)N)cc1-c1nc(-c2cccc(C)c2)cs1
[1]
  Ki: 546 µM

## CSc1sc(C(=N)N)cc1-c1nc(-c2cnccc2Cl)cs1
[1]
  Ki: 164 µM

## CSc1sc(C(=N)N)cc1-c1nc(COc2ccccc2)cs1
[1]
  Ki: 178 µM

## CSc1sc(C(=N)N)cc1-c1nc(-c2cccc(O)c2)cs1
[2]
  Ki: 0.93 µM
[3]
  Ki: 1.7 µM
[4]
  Ki: 32.1 µM
[5]
  Ki: > 25 µM
[1]
  Ki: 86 µM

## CSc1sc(C(=N)N)cc1-c1nc(-c2csc3ccccc23)cs1
[1]
  Ki: 141 µM

## CSc1ccc(C(=N)N)s1
[1]
  Ki: 6 µM

## CSc1sc(C(=N)N)cc1-c1nc(-c2ccccc2C)cs1
[1]
  Ki: 277 µM

## COC(=O)COc1cccc(-c2csc(-c3cc(C(=N)N)sc3SC)n2)c1
[1]
  Ki: 44 µM

## CSc1sc(C(=N)N)cc1-c1nc(-c2ccc([N+](=O)[O-])cc2)cs1
[1]
  Ki: 270 µM

## CSc1sc(C(=N)N)cc1-c1nc(-c2cccc(NC(=O)c3ccc(F)cc3)c2)cs1
[1]
  Ki: 47 µM

## CSc1sc(C(=N)N)cc1-c1nc(-c2ccnc(Cl)c2)cs1
[1]
  Ki: 120 µM

## COc1cccc(-c2csc(-c3cc(C(=N)N)sc3SC)n2)c1
[2]
  Ki: 0.86 µM
[3]
  Ki: 1.9 µM
[4]
  Ki: 6.9 µM
[5]
  Ki: > 30 µM
[1]
  Ki: 115 µM

## CSc1sc(C(=N)N)cc1-c1nc(-c2ccc(S(=O)(=O)Nc3ccc(C)cc3)cc2)cs1
[1]
  Ki: 272 µM

## CSc1sc(C(=N)N)cc1-c1nc(-c2ccccc2)c(C)s1
[1]
  Ki: 305 µM

## CSc1sc(C(=N)N)cc1-c1nc(-c2ccc3ccccc3c2)cs1
[1]
  Ki: 138 µM

## CSc1sc(C(=N)N)cc1-c1nc(-c2ccc(C)cc2)cs1
[1]
  Ki: 94 µM

## CSc1sc(C(=N)N)cc1-c1nc(-c2ccc(NS(C)(=O)=O)cc2)cs1
[1]
  Ki: 94 µM

## CSc1sc(C(=N)N)cc1-c1nc(-c2ccc3c(c2)OCO3)cs1
[2]
  Ki: 0.88 µM
[3]
  Ki: 1.7 µM
[4]
  Ki: 10.8 µM
[5]
  Ki: > 29 µM
[1]
  Ki: 91 µM

## CSc1sc(C(=N)N)cc1-c1nc(-c2ccc(Cl)c([N+](=O)[O-])c2)cs1
[1]
  Ki: 161 µM

## CSc1sc(C(=N)N)cc1-c1nc(-c2ccc(-c3ccccc3)cc2)cs1
[1]
  Ki: 1740 µM

## CSc1sc(C(=N)N)cc1-c1nc(-c2ccc(O)c(C)c2)cs1
[1]
  Ki: 44 µM
